# Earlier results, collected in patent publication US20070071818A1 (ARDANA BIOSCIENCE LIMITED, priority 2002, published 2007).
# Structures can show the parent of a compound that is named as a salt.
# Experiments:
# [1] = system: erectile response; conditions: oral administration; psychogenic patient
# [2] = system: female sexual arousal disorder; conditions: oral; menopausal women with female sexual arousal disorder
# [3] = system: female sexual response; conditions: female sexual dysfunction
smiles,measurement,setting,value
"CN1CCc2cccc3c2[C@H]1Cc1ccc(O)c(O)c1-3 [apomorphine, (6aR)-5,6,6a,7-Tetrahydro-6-methyl-4H-dibenzo[de,g]quinoline-10,11-diol hydrochloride hemihydrate]",erectile response,[1],induce an erection
Cc1ccc(N(CC2=NCCN2)c2cccc(O)c2)cc1 [phentolamine],effect across all measures of arousal,[2],mild positive effect
CCCc1nn(C)c2c(=O)[nH]c(-c3cc(S(=O)(=O)N4CCN(C)CC4)ccc3OCC)nc12 [sildenafil],subjective and physiologic parameters of the female sexual response,[3],significantly improve
